Columns and labels:
VDR = VDR (Homo sapiens, UniProt P11473); conditions: antagonist mode; agonist and cell line not told
VDR-LBD = VDR-LBD (Homo sapiens, UniProt P11473); experiment: biochemical
VDR-LBD, sequence (P11473 118-427 limits assumed): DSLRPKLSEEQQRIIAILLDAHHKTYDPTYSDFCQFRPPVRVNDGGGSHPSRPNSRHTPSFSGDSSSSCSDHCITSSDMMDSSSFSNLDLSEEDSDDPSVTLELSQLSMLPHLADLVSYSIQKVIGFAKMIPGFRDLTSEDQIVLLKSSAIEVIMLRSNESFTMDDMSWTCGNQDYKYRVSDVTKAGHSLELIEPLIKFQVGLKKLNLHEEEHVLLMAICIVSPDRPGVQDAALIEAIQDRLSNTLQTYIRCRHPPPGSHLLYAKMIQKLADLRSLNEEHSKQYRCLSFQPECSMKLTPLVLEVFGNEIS

VDR, sequence (P11473 whole entry, the tested form may be a part): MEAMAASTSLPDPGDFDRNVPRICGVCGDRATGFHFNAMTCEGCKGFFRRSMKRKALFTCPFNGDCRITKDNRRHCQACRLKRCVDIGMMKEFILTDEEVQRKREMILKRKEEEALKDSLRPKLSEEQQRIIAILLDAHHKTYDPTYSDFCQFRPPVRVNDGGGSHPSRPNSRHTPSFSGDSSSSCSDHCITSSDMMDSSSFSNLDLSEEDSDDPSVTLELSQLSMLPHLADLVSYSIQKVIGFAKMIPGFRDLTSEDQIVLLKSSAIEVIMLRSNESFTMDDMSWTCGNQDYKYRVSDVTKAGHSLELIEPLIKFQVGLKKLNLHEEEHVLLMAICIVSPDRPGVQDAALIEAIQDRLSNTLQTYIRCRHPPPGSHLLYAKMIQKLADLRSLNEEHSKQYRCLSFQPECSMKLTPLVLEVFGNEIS

Row | inhibition only at concentrations above (VDR) [µM] | IC50 (VDR-LBD) [nM] | SMILES
1 | > 100 | – | CC(C)CCC[C@@H](C)[C@H]1CC[C@H]2C3=CC=C4C[C@@H](O)CC[C@]4(C)[C@H]3CC[C@]12C [7-dehydrocholesterol]
2 | – | 1860 | CC(C)CCC[C@@H](C)[C@H]1CC[C@@H]2[C@]1(C)CC[C@H]1[C@]23C=C[C@]2(C[C@@H](OC(=O)CBr)CC[C@]12C)n1c(=O)n(C)c(=O)n13 [MeTC7]

— doi:10.1101/2020.08.16.252940v1 (biorxiv, 2020)
